Experimental data reported in patent US12071443B2, “Prolyl hydroxylase domain-containing protein (PHD) inhibitors and uses thereof” (Insilico Medicine IP Limited, priority 2021, dated 2024).

How the values were obtained:
PHD2 = PHD2 (Homo sapiens, UniProt Q9GZT9); assay: PHD2 enzymatic assay (AlphaScreen); assay type: biochemical; conditions: PHD2 enzyme, AlphaScreen, IC50 from % inhibition; read-out: PHD2
[1] = system: Caco2-HIF1α-HiBiT-clone-1 cells; assay: Caco-2 HIF1α-HiBiT assay; assay type: cell-based; conditions: Homo sapiens, Caco-2; Caco2-HIF1α-HiBiT-clone-1 cells, 6 h incubation, luminescence; read-out: Caco2-HIF1α-HiBit assay - EC50

Sequence of PHD2 (Q9GZT9 whole entry): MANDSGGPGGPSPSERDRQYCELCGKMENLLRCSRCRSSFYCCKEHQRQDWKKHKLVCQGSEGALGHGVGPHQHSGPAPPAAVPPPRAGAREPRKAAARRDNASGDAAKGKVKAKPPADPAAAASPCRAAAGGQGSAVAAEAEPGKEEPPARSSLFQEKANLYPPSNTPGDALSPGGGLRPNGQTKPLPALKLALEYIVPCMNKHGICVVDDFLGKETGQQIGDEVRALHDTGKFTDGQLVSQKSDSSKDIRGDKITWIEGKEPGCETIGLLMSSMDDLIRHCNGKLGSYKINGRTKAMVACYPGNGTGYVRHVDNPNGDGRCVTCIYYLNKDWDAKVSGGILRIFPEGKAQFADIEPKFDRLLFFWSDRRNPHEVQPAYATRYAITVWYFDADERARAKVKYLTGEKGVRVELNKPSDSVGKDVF

N#Cc1ncc(CNC(=O)c2ncc3nc(N4CCOCC4)ccc3c2O)cn1 [Example 23]
IC50 (PHD2): < 5 nM | EC50 [1]: 5000 to 7500 nM

CC(C)(C)OC(=O)N[C@@H]1CCN(c2ccc3c(O)c(C(=O)NCc4ccc(C#N)nc4)ncc3n2)C1 [Example 140]
IC50 (PHD2): 5 to 20 nM | EC50 [1]: 2500 to 5000 nM

C[C@@H](NC(=O)c1ncc2nc(N3CCOCC3)ccc2c1O)c1ccc(C#N)cc1 [Example 18]
IC50 (PHD2): 5 to 20 nM | EC50 [1]: 5000 to 7500 nM

CC1(OC(=O)N2CCN(c3ccc4c(O)c(C(=O)NCc5ccc(C#N)nc5)ncc4n3)CC2)CC1 [Example 137]
IC50 (PHD2): < 5 nM | EC50 [1]: < 2500 nM

CCOC(=O)C1CCN(c2ccc3c(O)c(C(=O)NCc4ccc(C#N)nc4)ncc3n2)CC1 [Example 94]
IC50 (PHD2): < 5 nM | EC50 [1]: 7500 to 10000 nM

CC(C)(C)OC(=O)N1CCN(c2ccc3c(O)c(C(=O)NCc4ccc(C#N)nc4)ncc3n2)CC1 [Example 29, tert-butyl 4-(6-(((6-cyanopyridin-3-yl)methyl)carbamoyl)-5-hydroxy-1,7-naphthyridin-2-yl)piperazine-1-carboxylate]
IC50 (PHD2): < 5 nM | EC50 [1]: < 2500 nM

N#Cc1ccc(CNC(=O)c2ncc3nc(N4CC(O)(CO)C4)ccc3c2O)cn1 [Example 119]
IC50 (PHD2): < 5 nM | EC50 [1]: 10000 to 100000 nM

C[C@H]1CN(C(=O)OC(C)(C)C)CCN1c1ccc2c(O)c(C(=O)NCc3ccc(C#N)nc3)ncc2n1 [Example 139]
IC50 (PHD2): < 5 nM | EC50 [1]: 2500 to 5000 nM

N#Cc1ccc(CNC(=O)c2ncc3nc(N4CCN[C@@H](CO)C4)ccc3c2O)c(Cl)c1 [Example 60, (R)—N-(2-chloro-4-cyanobenzyl)-5-hydroxy-2-(3-(hydroxymethyl)piperazin-1-yl)-1,7-naphthyridine-6-carboxamide]
IC50 (PHD2): 5 to 20 nM | EC50 [1]: 10000 to 100000 nM

CC(C)(C)OC(=O)N1CCN(c2ccc3c(O)c(C(=O)NCc4ccc(C#N)nc4)ncc3n2)C(=O)C1 [Example 101]
IC50 (PHD2): < 5 nM | EC50 [1]: 2500 to 5000 nM

N#Cc1ccc(CNC(=O)c2ncc3nc(N4CCN(C5CC5)[C@@H](CO)C4)ccc3c2O)c(Cl)c1 [Example 70]
IC50 (PHD2): 5 to 20 nM | EC50 [1]: 2500 to 5000 nM

N#Cc1ccc(CNC(=O)c2ncc3nc(N4CCNCC4)ccc3c2O)c(Cl)c1 [Example 5, N-(2-chloro-4-cyanobenzyl)-5-hydroxy-2-(piperazin-1-yl)-1,7-naphthyridine-6-carboxamide]
IC50 (PHD2): 5 to 20 nM | EC50 [1]: 7500 to 10000 nM

COc1c(C(=O)NCc2ccc(C#N)nc2)ncc2nc(N3CCOCC3)ccc12 [Example 163, N-((6-cyanopyridin-3-yl)methyl)-5-methoxy-2-morpholino-1,7-naphthyridine-6-carboxamide]
IC50 (PHD2): 100 to 1000 nM

CC(C)(C)OC(=O)N1CCN(c2ccc3c(O)c(C(=O)NCc4cnc(C#N)cn4)ncc3n2)CC1 [Example 134, tert-butyl 4-(6-(((5-cyanopyrazin-2-yl)methyl)carbamoyl)-5-hydroxy-1,7-naphthyridin-2-yl)piperazine-1-carboxylate]
EC50 [1]: 10000 to 100000 nM

N#Cc1ccc(CNC(=O)c2ncc3nc(N4CCOCC4)ncc3c2O)cn1 [Example 31]
EC50 [1]: 10000 to 100000 nM

CC(C)OC(=O)CC1CN(c2ccc3c(O)c(C(=O)NCc4ccc(C#N)nc4)ncc3n2)C1 [Example 154]
EC50 [1]: < 2500 nM

Cc1cc(C#N)ncc1CNC(=O)c1ncc2nc(N3CCN(C(=O)OC(C)(C)C)CC3)ccc2c1O [Example 135]
EC50 [1]: < 2500 nM

N#Cc1cnc(CNC(=O)c2ncc3nc(N4CCOCC4)ccc3c2O)cn1 [Example 33]
EC50 [1]: 5000 to 7500 nM

CC[C@H]1CN(C(=O)OC(C)(C)C)CCN1c1ccc2c(O)c(C(=O)NCc3ccc(C#N)nc3)ncc2n1 [Example 151]
EC50 [1]: 2500 to 5000 nM

N#Cc1ccc(CNC(=O)c2ncc3nc(N4CCNCC4=O)ccc3c2O)cn1 [Example 102, N-((6-cyanopyridin-3-yl)methyl)-5-hydroxy-2-(2-oxopiperazin-1-yl)-1,7-naphthyridine-6-carboxamide]
IC50 (PHD2): 100 to 1000 nM

CC1(C)CCN(c2ccc3c(O)c(C(=O)NCc4ccc(C#N)nc4)ncc3n2)CC1 [Example 155]
EC50 [1]: 7500 to 10000 nM

CCOC(=O)CC1CN(c2ccc3c(O)c(C(=O)NCc4ccc(C#N)nc4)ncc3n2)C1 [Example 153]
EC50 [1]: 2500 to 5000 nM
